Earlier results in patent publication US20100137843A1, “Delivery devices for modulating inflammation” (Searete LLC, a limited liability corporation of the State …, priority 2008, published 2010).

Legend:
[1] = system: Epha1; details: at nanomolar concentrations
[2] = system: aldehyde dehydrogenase; details: without toxicity
[3] = system: proteasome; details: cultured breast cancer cells; copper-bound
[4] = single agent, 400 mg infused over one hour
[5] = target: Toll-like receptor 4 (Homo sapiens, UniProt O00206)
[6] = system: Src family kinase; details: also its dependent cellular responses

Sequence of Toll-like receptor 4 (O00206 24-839, species assumed): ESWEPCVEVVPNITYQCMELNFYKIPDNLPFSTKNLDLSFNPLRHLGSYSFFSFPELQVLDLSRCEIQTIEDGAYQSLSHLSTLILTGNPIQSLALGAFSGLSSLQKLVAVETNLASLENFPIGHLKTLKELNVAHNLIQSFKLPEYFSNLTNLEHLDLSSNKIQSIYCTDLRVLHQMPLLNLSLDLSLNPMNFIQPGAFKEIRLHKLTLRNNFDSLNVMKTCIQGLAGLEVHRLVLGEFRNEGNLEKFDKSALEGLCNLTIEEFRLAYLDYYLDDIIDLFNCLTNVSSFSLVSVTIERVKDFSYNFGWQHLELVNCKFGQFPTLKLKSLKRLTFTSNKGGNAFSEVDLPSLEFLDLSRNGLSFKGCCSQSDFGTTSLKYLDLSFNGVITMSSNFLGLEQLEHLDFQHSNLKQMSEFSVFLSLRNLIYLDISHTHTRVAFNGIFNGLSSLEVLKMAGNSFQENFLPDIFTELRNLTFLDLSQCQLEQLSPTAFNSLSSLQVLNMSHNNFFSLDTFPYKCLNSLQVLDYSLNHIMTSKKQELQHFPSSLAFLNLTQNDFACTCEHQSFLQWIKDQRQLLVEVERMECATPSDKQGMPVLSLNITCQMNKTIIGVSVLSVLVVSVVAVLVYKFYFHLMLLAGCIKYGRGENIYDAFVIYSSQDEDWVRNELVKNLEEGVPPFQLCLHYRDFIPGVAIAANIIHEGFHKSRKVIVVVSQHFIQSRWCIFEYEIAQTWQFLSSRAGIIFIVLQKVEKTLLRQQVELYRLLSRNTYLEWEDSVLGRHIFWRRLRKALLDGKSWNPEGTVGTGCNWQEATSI

## Cc1nc(Nc2ncc(C(=O)Nc3c(C)cccc3Cl)s2)cc(N2CCN(CCO)CC2)n1.O [dasatinib, N-(2-chloro-6-methylphenyl)-2-[[6-[4-(2-hydroxyethyl)-1-piperazinyl]-2-methyl-4-pyrimidinyl]amino]-5-thiazolecarboxamide, monohydrate]
[1]
  inhibition of Epha1: inhibits

## CCN(CC)C(=S)SSC(=S)N(CC)CC [Disulfiram, 1-(diethylthiocarbamoyldisulfanyl)-N,N-diethyl-methanethioamide]
[2]
  inhibition of aldehyde dehydrogenase: inhibits
[3]
  proteasomal activity: inhibits proteasomal activity

## CCN(CC)CCCC(C)Nc1ccnc2cc(Cl)ccc12.O=P(O)(O)O.O=P(O)(O)O (stereo not drawn) [Chloroquine phosphate, 7-chloro-4-[[4-(diethylamino)-1-methylbutyl]amino]quinoline phosphate (1:2)]
[4]
  tolerability of intravenous infusion: without complication

## Cl.Cl.Nc1ccccc1Oc1ccc2c(N)nsc2c1 [Example M62812, 3-amino-6-(2-aminophenoxy)-1,2-benzisothiazole dihydrochloride]
[5]
  inhibition of Toll-like receptor 4: inhibitor

## CCN(CC)CCCC(C)Nc1ccnc2cc(Cl)ccc12 (stereo not drawn) [Chloroquine]
[6]
  inhibition of CpG-induced Src family kinase activation: does not inhibit
